Like-named read-outs stand apart in the source and are kept apart here.
Columns and labels:
[1] = IV reference AUClast in beagle dogs; settings: dog, in vivo, IV at 5 mg/kg
[2] = Non-sink dissolution (0.1N HCl to FaSSIF gastric transfer); type: physicochemical
Description: In vitro drug dissolution performance for each dispersion was evaluated under non-sink conditions in a two-stage process that simulates pH and bile salt concentrations for both gastric and intestinal exposure. In vitro dissolution testing under non-sink conditions allows for a direct evaluation of each dispersion's ability to generate and maintain supersaturation above crystalline etrumadenant's solubility; was used as a predictive surrogate for ensuring product quality and in vivo performance; and is an effective test to discriminate between formulations at a given stability condition.
To begin dissolution (t=0), a sample of SDI powder was briefly suspended in 4 mL of FaSSIF (2 mg/mL SIF in 100 mM PBS) and then transferred into 50 mL SGF (0.1 N HCl (aq)) pre-heated to 37° C. in a USP Type 2 mini-vessel (100 mL total vessel volume) with stirring (paddles) at 100 rpm. At 30 minutes, a gastric transfer step was performed wherein the volume in each dissolution vessel was approximately doubled using 2×FaSSIF (4.48 mg/mL SIF powder (BioRelevant)), resulting in a final pH of 6.8 in a total volume of 100 mL. Samples taken before and after this transfer at indicated times were evaluated for drug concentration by HPLC. The drug concentrations measured in this test are a composite of SDI free drug, drug in micelles, and drug suspended in solution. A summary of the dissolution and HPLC parameters are shown in Table 6 and Table 7, respectively.

[3] = Drug-drug interaction study with itraconazole; type: in vivo, humans; settings: for CL/F / Kel / Vd/F / half-life: arithmetic mean ± SD; for AUC % ex / AUC from 0 to 24 h (AUC0-24) / AUC(0-t) / AUC(0-inf) / Cmax: geometric mean; for AUC from 0 to 24 h (AUC0-24) / AUC(0-t) / Vd/F / half-life / AUC(0-inf) / Cmax / Tmax: both sexes, human, plasma, oral; for Vd/F: read-out: Vz/F; for half-life: read-out: t½ (converted); for Tmax: median
Description: An open-label, fixed-sequence, 2-period drug-drug interaction (DDI) study was designed to evaluate the effect of multiple doses of a strong inhibitor of CYP3A4 and P-gp on the single-dose PK of etrumadenant in humans. Etrumadenant was supplied as 25 mg capsules. Itraconazole was used as the representative strong inhibitor of CYP3A4 and P-gp. It was supplied as 10 mg/mL oral solution, Sporanox® by Janssen Pharmaceuticals (or generic equivalent). Twenty (20) healthy, adult male and female (of non-childbearing potential) participants were enrolled. Screening of participants occurred within 28 days prior to the first dosing.
On Day 1 of Period 1, a single 150 mg dose of etrumadenant was orally administered under fasting conditions (i.e., at least 10 hours of fasting prior to dosing and at least 4 hours postdose). PK sampling for etrumadenant and its metabolites was taken predose and up to 120 hours postdose. There was a washout of 5 days between the etrumadenant dose in Period 1 and the first itraconazole dose in Period 2.
In Period 2, 200 mg itraconazole was orally administered twice a day (BID) on Day 1 and once a day (QD) for 9 consecutive days (on Days 2 through 10) with a single 150 mg dose of etrumadenant orally administered 1 hour after itraconazole dosing on Day 6. Itraconazole was administered under fasting conditions. On Day 6, participants fasted for at least 10 hours prior to and at least 4 hours post etrumadenant dosing. PK sampling for etrumadenant and its metabolites was taken predose and up to 120 hours after etrumadenant dosing. PK sampling for itraconazole and 1-hydroxy-itraconazole was collected on Days 5, 6, 7, 9, and 11.
Itraconazole was administered twice on the first day of Period 2 as a loading dose to accelerate CYP3A inhibition and the inhibition was then maintained by administering itraconazole 200 mg QD for 9 consecutive days. A 200 mg BID dose level is expected to provide similar inhibition to a 400 mg QD dose. Although itraconazole reaches steady state within approximately 15 days, it has been established that QD administration of 200 mg itraconazole for 3 to 5 days allows maximum CYP3A inhibition sufficient to detect a DDI. […] As such, administration of itraconazole for at least 4 days is considered sufficient in DDI studies as a CYP3A4 and P-gp inhibitor. To maintain the level of inhibition, itraconazole was administered throughout PK sampling of etrumadenant (i.e., through Day 10 of Period 2). In addition, the itraconazole oral solution was administered under fasting conditions to maximize bioavailability.
Participants were housed on Day −1 of Period 1, at the time indicated by the clinical research unit (CRU), until after the 120-hour blood draw and completion of study procedures in Period 2. Safety was monitored throughout the study by repeated clinical and laboratory evaluations. In this study, there were no discontinued participants. All participants who received at least one dose of study drug (including participants who terminated the study early) were asked to return to the CRU approximately 14 days after the last dose for follow-up procedures, and to determine if any adverse event (AE) had occurred since the last study visit. All adverse events reported in the study were mild and resolved without treatment.

[4] = molecular target: A2AR (Homo sapiens, UniProt P29274); settings: antagonist; has been reported; cited from earlier work
[5] = molecular target: P-gp (Homo sapiens, UniProt P08183); experiment: In vitro transporter substrate data (P-gp); type: in vitro ADME
[6] = Etrumadenant 150 mg + Itraconazole
[7] = multiple doses of itraconazole compared to etrumadenant given alone

Sequence of P-gp (P08183 whole entry): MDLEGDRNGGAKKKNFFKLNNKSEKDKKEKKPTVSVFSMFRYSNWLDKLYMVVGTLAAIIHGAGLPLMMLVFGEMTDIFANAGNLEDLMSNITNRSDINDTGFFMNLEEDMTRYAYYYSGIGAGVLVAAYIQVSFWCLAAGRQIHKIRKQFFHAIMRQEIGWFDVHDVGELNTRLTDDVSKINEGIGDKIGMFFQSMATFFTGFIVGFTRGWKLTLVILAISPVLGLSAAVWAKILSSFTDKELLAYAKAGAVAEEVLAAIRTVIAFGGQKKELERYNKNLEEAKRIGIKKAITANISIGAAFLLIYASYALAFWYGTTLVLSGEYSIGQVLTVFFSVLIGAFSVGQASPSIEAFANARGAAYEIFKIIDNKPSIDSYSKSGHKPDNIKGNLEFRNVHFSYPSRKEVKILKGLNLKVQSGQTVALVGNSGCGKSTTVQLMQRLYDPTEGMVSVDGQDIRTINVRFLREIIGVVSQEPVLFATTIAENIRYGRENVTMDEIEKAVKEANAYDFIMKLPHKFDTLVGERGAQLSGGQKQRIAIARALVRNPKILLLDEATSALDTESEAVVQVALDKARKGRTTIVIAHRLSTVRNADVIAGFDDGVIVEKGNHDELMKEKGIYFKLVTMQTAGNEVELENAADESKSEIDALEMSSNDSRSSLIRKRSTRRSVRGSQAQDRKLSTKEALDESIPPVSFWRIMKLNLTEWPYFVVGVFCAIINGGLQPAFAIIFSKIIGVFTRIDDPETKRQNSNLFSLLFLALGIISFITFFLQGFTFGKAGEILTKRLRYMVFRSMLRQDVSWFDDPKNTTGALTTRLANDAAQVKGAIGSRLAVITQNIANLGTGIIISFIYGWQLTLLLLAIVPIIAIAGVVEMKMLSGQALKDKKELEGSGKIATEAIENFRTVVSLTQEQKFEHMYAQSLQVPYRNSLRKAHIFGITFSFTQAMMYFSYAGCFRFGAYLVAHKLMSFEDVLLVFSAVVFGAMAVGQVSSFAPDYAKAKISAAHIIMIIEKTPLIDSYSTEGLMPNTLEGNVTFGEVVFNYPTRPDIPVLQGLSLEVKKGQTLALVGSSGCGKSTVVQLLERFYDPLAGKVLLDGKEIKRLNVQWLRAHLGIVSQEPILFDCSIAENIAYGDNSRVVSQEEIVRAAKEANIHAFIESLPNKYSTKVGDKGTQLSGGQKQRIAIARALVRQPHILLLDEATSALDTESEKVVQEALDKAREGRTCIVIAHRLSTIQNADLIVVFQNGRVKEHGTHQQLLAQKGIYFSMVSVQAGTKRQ
Sequence of A2AR (P29274 whole entry): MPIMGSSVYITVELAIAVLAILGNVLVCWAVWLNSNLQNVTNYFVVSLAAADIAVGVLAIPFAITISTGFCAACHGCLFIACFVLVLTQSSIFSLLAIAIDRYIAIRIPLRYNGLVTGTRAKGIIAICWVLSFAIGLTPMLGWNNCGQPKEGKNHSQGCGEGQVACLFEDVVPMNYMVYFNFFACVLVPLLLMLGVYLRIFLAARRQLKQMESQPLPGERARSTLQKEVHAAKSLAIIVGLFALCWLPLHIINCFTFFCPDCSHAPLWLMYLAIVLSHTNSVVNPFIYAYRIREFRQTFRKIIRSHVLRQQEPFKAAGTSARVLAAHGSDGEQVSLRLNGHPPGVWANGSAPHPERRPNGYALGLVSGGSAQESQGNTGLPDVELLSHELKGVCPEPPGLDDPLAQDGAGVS

## Cc1c(C#N)cccc1-c1cc(-c2cn(Cc3cccc(C(C)(C)O)n3)nn2)nc(N)n1 [Etrumadenant, 3-[2-amino-6-(1-{[6-(2-hydroxypropan-2-yl)pyridine-2-yl]methyl}-1H-1,2,3-triazol-4-yl)pyrimidin-4-yl]-2-methylbenzonitrile]
[1]
  AUC(0-t): 25100 ng·h/mL
[2]; Example 4, after transfer to FaSSIF from 35 to 210 minutes
  AUC35-210 FaSSIF: 8000 min*μgA/mL
[2]; Example 4, drug concentration at 210 minutes (180 minutes after transfer to FaSSIF)
  C210: 37.9 μgA/mL
[2]; Example 4, maximum drug concentration after transfer to FaSSIF
  Cmax FaSSIF: 155.0 μgA/mL
[2]; Example 5, t = 0
  AUC35-210 FaSSIF: 3800 min*μgA/mL
  C210: 15.5 μgA/mL
  Total Drug CmaxFaSSIF: 129.9 μgA/mL
[2]; Example 5, t = 0, listed as AB928 starting drug substance
  C210: 15.6 μgA/mL
[3]; [6]
  CL/F: 2.52 ± 0.842 L/h
  Kel: 0.0255 ± 0.00605 h⁻¹
  AUC % ex: 4.39%
  Vd/F: 100 ± 28.3 L
  half-life: 28.7 ± 7.01 h
  AUC(0-inf): 62600 ng·h/mL
  AUC(0-t): 59400 ng·h/mL
  Cmax: 3530 ng/mL
  Tmax: 1.52 h
[3]; Etrumadenant Alone, 150 mg
  CL/F: 4.00 ± 1.12 L/h
  Kel: 0.0249 ± 0.00663 h⁻¹
  AUC % ex: 3.90%
  Vd/F: 172 ± 64.8 L
  half-life: 29.9 ± 8.88 h
  AUC(0-inf): 38600 ng·h/mL
  Cmax: 3000 ng/mL
  Tmax: 1.38 h
[3]; 150 mg, Etrumadenant Alone, 150 mg (6 × 25 mg capsules), fasting
  AUC from 0 to 24 h (AUC0-24): 21600 ng·h/mL
[3]; 150 mg, Etrumadenant Alone
  AUC(0-t): 36500 ng·h/mL
[3]; Etrumadenant 150 mg + Itraconazole 200 mg multiple doses
  AUC from 0 to 24 h (AUC0-24): 30700 ng·h/mL
[3]; [7]
  increase in etrumadenant AUCinf: ~62%
  increase in etrumadenant AUClast: approximately 63%
  increase in etrumadenant Cmax: ~18%
[4]
  potency on A2AR: less than 10 nM
[5]
  substrate of P-gp: substrate

— US20260115190A1, “DISPERSIONS OF ETRUMADENANT” (Arcus Biosciences, Inc., priority 2022, published 2026)
